Measurements reported in patent publication US12024552B2 (priority 2012, dated 2024).
Marks after values point to notes of the source that are not given here.

Columns and labels:
[1] = tested on: Influenza A/Vietnam/1203/2004 (H5N1) virus; design: species or system BALB/c mice; conditions: mouse, in vivo
[2] = tested on: influenza H1N1 and Streptococcus pneumoniae; design: species or system mice; conditions: mouse, in vivo

| Compound | Hazard Ratio (95% CI) [1] | Live/Total [1] | Mean Day of Death ± SD [1] | Median Survival [1] | survival, H5N1 [1] | rescue from death [2] |
| --- | --- | --- | --- | --- | --- | --- |
| CCOC(=O)C1=C[C@@H](OC(CC)CC)[C@H](NC(C)=O)[C@@H](N)C1 [Oseltamivir, oseltamivir] | 4.8 (1.6-14.3) | 4/7* | 11.3 ± 0.6 | Undefined | 60% |  |
| NC(=O)c1ncn([C@@H]2O[C@H](CO)[C@@H](O)[C@H]2O)n1 [Ribavirin, ribavirin] |  |  |  |  |  | failed to rescue animals from death |
